Counter-ions that a name gives are not always drawn. Like-named read-outs stand apart in the source and are kept apart here.
How the values were obtained:
[1] = Solubility Screening of CHG in vehicles, Vacuum Method
Description: Solubility Screening. Screening tests were conducted to determine the solubility of CHG in a wide variety of vehicles. Tests were conducted using the Vacuum Method and the Lyophilizing Method.
Vacuum Method. […] The flask was put in a 60° C. oil bath and stirred with a magnetic stir bar. […] In those cases, after nearly all the water was removed, additional vehicle was added to bring the final weight to 50 grams. The resulting concentration of CHG and residual water were determined. Also, the final state of the solution was qualitatively evaluated to determine if the mixture was transparent and apparently homogenous, or clearly inhomogeneous.

[2] = Solubility of lyophilized CHG in vehicles, Lyophilization Method; details: for Apparent solubility 2 minutes / Apparent solubility 2 hours 50° C. / Apparent solubility >24 hours / Apparent solubility after cooling / Apparent solubility immediate: 0.2 wt. % lyophilized CHG; for Apparent solubility 2 minutes: after 2 minutes; for Apparent solubility 2 hours 50° C.: after 2 hours in 50° C. oven; for Apparent solubility >24 hours: after 24 hours; for Apparent solubility after cooling: after cooling to room temperature; for Apparent solubility immediate: observed immediately after mixing
Description: The Lyophilization Method. Lyophilized CHG was prepared by freeze-drying the aqueous CHG solution (20 wt. % solution in water, obtained from Xttrium Laboratories Inc., Chicago, Ill.).
For lower viscosity vehicles, a 5 ml sample of the non-aqueous vehicle of interest was measured into a glass vial. For higher viscosity vehicles that were difficult to transfer by volume, a 5 gm sample was weighed into the vial. Next, 0.01 g of lyophilized CHG was added to the vial. The sample was capped and mixed by shaking for 30 seconds. The sample was immediately observed and then observed again after 2 minutes and again after 24 hours. After 24 hours, the sample was placed in a 50° C. oven for 2 hours and then removed and immediately observed. These samples were allowed to cool to room temperature and a final observation was made.
CHG solutions. The solutions containing CHG were either a 20 wt. % aqueous solution of CHG or a 10-20% w/w solution of CHG in a non-aqueous vehicle. The non-aqueous solutions were prepared by freeze drying the aqueous CHG solution to produce lyophilized CHG. Finely divided, lyophilized CHG was then solubilized in a non-aqueous vehicle at room temperature with continuous stirring for eight hours.

[3] = CHG 10 wt. % in vehicle, 23-50° C., Vacuum Method
[4] = CHG 20 wt. % in vehicle, 23-50° C., Vacuum Method
[5] = summary of Tables 1a-3b, Vacuum Method
[6] = CHG 5 wt. % in vehicle, 23-50° C., Vacuum Method

## OCCCCC(O)CO (stereo not drawn) [1,2,6-trihydroxyhexane]
[1]; [3]
  Final State: Homogeneous

## CCCCCCC(O)CO (stereo not drawn) [1,2-octanediol]
[1]; [3]
  Final State: Homogeneous
[1]; [4]
  Final State: Homogeneous

## CCCC(O)CO (stereo not drawn) [1,2-pentanediol]
[1]; CHG 50 wt. % in vehicle, 23-50° C., Vacuum Method
  Final State: Homogeneous

## CC(O)CO (stereo not drawn) [1,2-propanediol]
[1]; [3]
  Final State: Homogeneous

## OC1CCCC(O)C1 (stereo not drawn) [1,3-cyclohexanediol]
[1]; CHG 6 wt. % in vehicle, 23° C., Vacuum Method
  Final State: Inhomogeneous
[1]; CHG 6 wt. % in vehicle, 50° C., Vacuum Method
  Final State: Homogeneous
[1]; CHG 10 wt. % in vehicle, 23° C., Vacuum Method
  Final State: Inhomogeneous
[1]; CHG 10 wt. % in vehicle, 50° C., Vacuum Method
  Final State: Homogeneous

## OCC1(O)COC(O)(CO)CO1 (stereo not drawn) [1,3-dihydroxyacetone dimer]
[1]; [3]
  Final State: Homogeneous

## OCCCCO [1,4-butanediol]
[1]
  CHG solubility in vehicle (trend): provides solubility
  Final State: Homogeneous

## OC1CCC(O)CC1 (stereo not drawn) [1,4-cyclohexanediol]
[1]; [3]
  Final State: Inhomogeneous
[1]; [5]
  CHG solubility in vehicle (trend): do not provide good solubility

## OCCCCCO [1,5-pentanediol]
[1]
  CHG solubility in vehicle (trend): too widely separated to impart good solubility
  Final State: Inhomogeneous

## OCCCCCCCCO [1,8-octanediol]
[1]; [3]
  Final State: Inhomogeneous
[1]; [5]
  CHG solubility in vehicle (trend): too widely separated to impart good solubility

## CC(O)C(C)O (stereo not drawn) [2,3-butanediol]
[1]
  Final State: Homogeneous

## CC(C)(O)C(C)(C)O [2,3-dimethyl-2,3-butanediol]
[1]
  CHG solubility in vehicle (trend): do not always impart solubility
  Final State: Inhomogeneous

## CC(O)CCC(C)O (stereo not drawn) [2,5-hexanediol]
[1]; [3]
  Final State: Inhomogeneous
[1]; [5]
  CHG solubility in vehicle (trend): do not provide good solubility

## CC(C)(O)CCO [3-methyl-1,3-butanediol]
[1]; CHG 1 wt. % in vehicle, 23° C., Vacuum Method
  Final State: Inhomogeneous
[1]; CHG 1 wt. % in vehicle, 50° C., Vacuum Method
  Final State: Homogeneous
[1]; CHG 2.5 wt. % in vehicle, 23° C., Vacuum Method
  Final State: Inhomogeneous
[1]; CHG 2.5 wt. % in vehicle, 50° C., Vacuum Method
  Final State: Homogeneous
[1]; [6]
  Final State: Inhomogeneous
[1]; [3]
  Final State: Inhomogeneous

## CCOC(=O)CC(CC(=O)OCC)(OC(C)=O)C(=O)OCC [Acetyltriethyl citrate]
[2]
  Apparent solubility 2 minutes: no
  Apparent solubility 2 hours 50° C.: soluble
  Apparent solubility >24 hours: partial
  Apparent solubility after cooling: partial
  Apparent solubility immediate: no

## CCCCOC(=O)[C@H](O)[C@@H](O)C(=O)OCCCC [Dibutyl-L-Tartrate]
[1]
  Final State: Homogeneous

## CCOC(=O)[C@@H](O)[C@H](O)C(=O)OCC [Diethyl-D-Tartrate]
[1]; [3]
  Final State: Homogeneous

## CCOC(=O)[C@H](O)[C@@H](O)C(=O)OCC [Diethyl-L-Tartrate]
[1]
  Final State: Homogeneous

## COCCOCCOC [Diethyleneglycol Dimethyl Ether]
[1]
  Final State: Inhomogeneous

## CCCCOCCOCCO [Diethyleneglycol Monobutyl Ether]
[1]
  Final State: Inhomogeneous

## CCOCCOCCO [Diethyleneglycol monoethyl ether]
[1]; CHG 2.5 wt. % in vehicle, 23-50° C., Vacuum Method
  Final State: Homogeneous
[1]; [6]
  Final State: Inhomogeneous
[1]; [3]
  Final State: Inhomogeneous

## COCCOCCO [Diethyleneglycol monomethyl ether]
[1]; [3]
  Final State: Homogeneous

## CC(C)OC(=O)[C@@H](O)[C@H](O)C(=O)OC(C)C [Diisopropyl-D-Tartrate]
[1]
  Final State: Inhomogeneous

## CC(C)OC(=O)[C@H](O)[C@@H](O)C(=O)OC(C)C [Diisopropyl-L-Tartrate]
[1]; [3]
  Final State: Inhomogeneous

## CCCCC(CC)COCC(O)CO (stereo not drawn) [Ethylhexyl glycerin]
[1]
  Final State: Homogeneous

## CCCCCCCCO [Example 1-octanol, 1-octanol]
[1]; [3]
  Final State: Inhomogeneous

## CC(C)CCCCCCCCCCCCCCC(=O)OCC(O)CO (stereo not drawn) [GMIS-1, glycerol monoisostearate]
[2]
  solubility of CHG in vehicle (dissolution experiments using lyophilized CHG): limited

## CC(C)CCCCCCCCCCCCCCC(=O)OCC(O)CO (stereo not drawn) [GMIS-2, glycerol monoisostearate]
[2]
  solubility of CHG in vehicle (dissolution experiments using lyophilized CHG): good solvent for CHG

## OCC(O)CO [Glycerol]
[1]
  Final State: Homogeneous

## CCCCCCCC(=O)OCC(O)CO (stereo not drawn) [Glyceryl monocaprylate]
[1]
  Final State: Homogeneous

## CC(C)CCCCCCCCCCCCCCC(=O)OCC(O)CO (stereo not drawn) [Glyceryl monoisostearate]
[1]; CHG 10 wt. % in vehicle, 23-60° C., Vacuum Method
  Final State: Homogeneous
[1]; CHG 16 wt. % in vehicle, 23-60° C., Vacuum Method
  Final State: Homogeneous
[1]; CHG 20 wt. % in vehicle, 60° C., Vacuum Method
  Final State: Homogeneous

## CCCCCCCCCCCC(=O)OCC(O)CO (stereo not drawn) [Glyceryl monolaurate]
[1]; CHG 20 wt. % in vehicle, 75° C., Vacuum Method
  Final State: Homogeneous

## CCCCCCCC/C=C\CCCCCCCC(=O)OCC(O)CO (stereo not drawn) [Glyceryl monooleate]
[1]; [4]
  Final State: Homogeneous

## CCCCCCCCCCCCCCCCCC(=O)OCC(O)CO (stereo not drawn) [Glyceryl monostearate]
[1]; CHG 10 wt. % in vehicle, 80° C., Vacuum Method
  Final State: Homogeneous

## CC(C)CCCCCCCCCCCCCCCOC(=O)CCCCCCCCCCCCCCC(C)C [Isostearyl isostearate]
[2]
  Apparent solubility 2 minutes: no
  Apparent solubility 2 hours 50° C.: partial
  Apparent solubility >24 hours: no
  Apparent solubility after cooling: partial
  Apparent solubility immediate: no

## CCOC(=O)C(=O)OCC [Oxalic Acid Diethyl Ester]
[1]
  Final State: Inhomogeneous

## CC(C)CCCCCCCCCCCCCCC(=O)OCC(COC(=O)CCCCCCCCCCCCCCC(C)C)(COC(=O)CCCCCCCCCCCCCCC(C)C)COC(=O)CCCCCCCCCCCCCCC(C)C [Pentaerythritol tetraisostearate]
[2]
  Apparent solubility 2 minutes: partial
  Apparent solubility 2 hours 50° C.: partial
  Apparent solubility >24 hours: partial
  Apparent solubility after cooling: partial
  Apparent solubility immediate: partial

## OCCOCCOCCO [Triethylene glycol]
[1]
  Final State: Homogeneous

## CC(O)COC(C)COC(C)CO (stereo not drawn) [Tripropylene glycol]
[1]
  Final State: Inhomogeneous

## Decaglyceryl pentaoleate
[1]
  Final State: Inhomogeneous

## Decaglyceryl tristearate
[1]
  Final State: Homogeneous

## Diisostearyl dimerate
[2]
  Apparent solubility 2 minutes: no
  Apparent solubility 2 hours 50° C.: soluble
  Apparent solubility >24 hours: no
  Apparent solubility after cooling: no
  Apparent solubility immediate: no

## Dimer Diol
[1]
  Final State: Inhomogeneous

## Glycereth-18 Ethylhexanoate
[2]
  Apparent solubility 2 minutes: no
  Apparent solubility 2 hours 50° C.: soluble
  Apparent solubility >24 hours: soluble
  Apparent solubility after cooling: soluble
  Apparent solubility immediate: no

## Isolaureth-10
[2]
  Apparent solubility 2 minutes: no
  Apparent solubility 2 hours 50° C.: soluble
  Apparent solubility >24 hours: partial
  Apparent solubility after cooling: soluble
  Apparent solubility immediate: no
[1]
  Final State: Inhomogeneous

## Octyldodeceth-10
[2]
  Apparent solubility 2 minutes: partial
  Apparent solubility 2 hours 50° C.: partial
  Apparent solubility >24 hours: partial
  Apparent solubility after cooling: partial
  Apparent solubility immediate: no

## Oleth-2
[2]
  Apparent solubility 2 minutes: no
  Apparent solubility 2 hours 50° C.: partial
  Apparent solubility >24 hours: no
  Apparent solubility after cooling: partial
  Apparent solubility immediate: no

## PEG-20 glyceryl Triisostearate
[2]
  Apparent solubility 2 minutes: partial
  Apparent solubility 2 hours 50° C.: partial
  Apparent solubility >24 hours: partial
  Apparent solubility after cooling: partial
  Apparent solubility immediate: no

## Polyethyleneglycol Dimethyl Ether
[1]
  Final State: Inhomogeneous

## Polyglycerol-2-Triisostearate
[1]
  Final State: Inhomogeneous

## Polyglycerol-3 Diisostearate
[2]
  Apparent solubility 2 minutes: no
  Apparent solubility 2 hours 50° C.: soluble
  Apparent solubility >24 hours: soluble
  Apparent solubility after cooling: partial
  Apparent solubility immediate: no

## Sorbeth-6
[1]
  Final State: Homogeneous

## Triglyceryl diisostearate
[1]
  Final State: Inhomogeneous

## sorbitan trioleate
[2]
  solubility of CHG in vehicle (dissolution experiments using lyophilized CHG): limited

From patent US10456509B2, “Chlorhexidine gluconate compositions, resin systems and articles” (3M INNOVATIVE PROPERTIES COMPANY, priority 2012, dated 2019)
